Data set [1] deals with human colonic Caco2 (C2) cell monolayers. As to the kind of experiment: Tight junction recovery after low-calcium disruption, ZO-1 confocal microscopy. Type of data set: cell-based. To be noted: low-calcium medium (3 μM) 1 hour, assessed 2 hours after addition; AMP peptide 8 μg/ml, KGF-1 100 ng/ml, EGF 100 ng/ml. The protocol:
The AMP77-97 peptide prevented decreases in TJ proteins and epithelial integrity seen after treatment of human colonic Caco2 (C2) cell monolayers with the oxidant monochloramine, which disrupts intercellular junctions (FIG. 2; C,D). These cells were exposed to low-calcium medium (3 μM) for 1 hr to disrupt TJs, and then allowed to recover in medium containing AMP77-97 peptide, epidermal growth factor (EGF) or keratinocyte growth factor (KGF-1) which are known epithelial cell mitogens that might facilitate recovery of disrupted TJs. […] At the molecular level, AMP77-97 peptide facilitates the formation of TJs by enhancing translocation of several proteins (protein kinase C-zeta, Par6, Cdc42, ECT2 and Par3) from the cytosol into TJ domains.
Localization of the tight junction protein ZO-1 was monitored by indirect immunofluorescence laser scanning confocal microscopy in confluent monolayers of C2 cells. […] To disrupt tight junctions, cells were switched to low-calcium medium (3 μM) for 1 hour. Then a growth factor at a known mitogenic concentration was added to the medium, and 2 hours later its effect on tight junction formation was assessed by confocal microscopy. Vehicle, AMP peptide (8 μg/ml), KGF-1 (100 ng/ml), and EGF (100 ng/ml) were compared.

For a further data set, the system named is hamster cheek pouch. The data set can be described thus: Study 6: radiation-induced cheek pouch mucositis, topical dosing. To be noted: each of the hamster cheek pouch studies and the mouse model. Type of data set: in vivo. As for the experimental part:
In a separate test of efficacy (Study 6), AMP77-97 peptide was administered topically into the hamster cheek pouch (n=32). Doses of 0.5, 5 or 50 mg/kg AMP77-97 peptide in PBS were placed in the pouch three times daily from days −5 to −1 before radiation and 1 to 15 after radiation.
Acute Radiation-induced Mucositis. Oral mucositis was induced in hamsters by administering a single dose of radiation of 40 Gy. On day 0, under anesthesia (intraperitoneal injection of ketamine [160 mg/kg] and xylazine [8 mg/kg]), the left buccal pouch was everted, fixed, and radiated while the rest of the animal was shielded with lead cover. Radiation was generated using a 160-kV potential (18.75-ma) source at a focal distance of about 21 cm, hardened with a 3-mm Al filtration system. Ionizing radiation was targeted at the left buccal pouch mucosa at a rate of 1.32 Gy/minute.
Mucositis Evaluation: The progression of mucositis was monitored daily for both models. Every other day starting on day 6 postirradiation, animals were anesthetized using inhalation anesthesia, and the left buccal pouch was everted and photographed. At the conclusion of the study's clinical phase, film was developed, and resulting photos were randomly numbered and then scored in blinded fashion by two observers. […] Severity of oral mucositis (OM) was calculated using the scores per treatment group on each observation day (mean±SE). […]

For data set [2], the system named is BDF-1 mice. As to the kind of experiment: Study 1: epithelial thickening of oral mucosal surfaces in mice. Type of data set: in vivo. Conditions: Study 1, mice. As for the experimental part: (§1) The capacity of the AMP77-97 peptide to induce epithelial thickening of oral mucosal surfaces in mice and hamsters was studied to determine if these animals could be used to evaluate the potential of AMP77-97 peptide in the treatment of oral mucositis. In Study 1, female BDF-1 mice (n=8) and Syrian golden hamsters (n=8) were given daily subcutaneous injections of saline, mouse AMP77-97 peptide at 5 mg/kg, or 25 mg/kg for five days. […] There also appeared to be an increase in both hyperplasia and hyperkeratosis with increasing dose (more prevalent/pronounced in the animals receiving 25 mg/kg than those receiving 5 mg/kg) and duration of dosing (there were some effects seen at 2 days, but were more readily seen after 5 consecutive days). The effect was more easily observed on the dorsal than the ventral surface of the tongue.

For data set [3], the system named is BDF-1, C3H/OuJ, C3H/HeN, C57Bl/6 and Balb c mice. As to the kind of experiment: Study 2: thickening of oral epithelium in five mouse strains. Type of data set: in vivo. Conditions: Study 2, five mouse strains. The text has this: In Study 2, the effect of AMP77-97 peptide on thickening in the oral epithelium was compared in five different strains of mice. […] Hyperkeratosis was again observed in the esophagus of BDF-1 mice, and was also seen in C3H/HeN mice.

The test system of data set [4] is BDF-1 mice. To be noted: mouse, in vivo. As for the experimental part: AMP77-97 peptide (25 mg/kg, s.c.) was administered 5 days before and 10 days after radiation of the tongue in the BDF-1 mouse model of oral mucositis. Photomicrographs were prepared 10 days after radiation. Tissue from control irradiated mice treated with vehicle (saline) show substantial epithelial and connective tissue cell loss in both compartments compared to normal mouse tongue.
In Study 3, mucositis was induced in BDF-1 mice (n=40) by administering a single dose of radiation of 30 Gy to the snout. To evaluate the effect of AMP77-97 peptide in this setting of radiation-induced injury of the epithelial and connective tissue compartments of the tongue, mouse AMP77-97 peptide (25 mg/kg) was administered once daily subcutaneously before and after radiation (days −5 to 10; radiation on day 0). […] The evaluation was performed on day 10 when mucositis injury is at its peak. This effect on connective tissue supported that AMP77-97 peptide has beneficial effects on multiple cell and tissue types damaged by radiation.

The next data set relates to Syrian golden hamsters. The data set can be described thus: Study 1: epithelial thickening of oral mucosal surfaces in hamsters. Type of data set: in vivo, hamster. Conditions: Study 1, hamsters. As for the experimental part: as §1

Where no end group is shown, it is not given here.

For “EGF: epidermal growth factor, known epithelial cell mitogen [reference compound]”, the “formation of new tight junctions / localization of ZO-1” value in data set [1] is “persistent separation of cells with TJ disruption and apparent loss of ZO-1”.

Turning to “LDALVKEKKLQGKGPGGPPPK [AMP77-97 peptide]”, the “toxicity as measured by weight loss or mortality” value in the data set with hamster cheek pouch is “no signs of toxicity”. Moreover, the “toxicity (weight gain, mortality)” value (with BDF-1 mice [2]; in data set [3]; in the data set on Syrian golden hamsters) was “no evidence of any toxicity” in each case. Besides, in the data set with BDF-1 mice [4], the toxicity entry is given as “no evidence of any toxicity”.

These data come from US8017576B2, “Methods and compositions to treat mucositis” (The University of Chicago, priority 2005, dated 2011).
